Laboratory results published in US8980820B2, “Fatty acid binding proteins as drug targets for endocannabinoids” (The Research Foundation for the State University of New York, priority 2010, dated 2015).
Entries after “also recorded” stand apart in the source; their conditions may differ.

Key:
[1] = stability of AEA during pre-equilibration in medium with BSA; assay type: physicochemical; details: 75 min in medium containing 0.15% BSA, data not shown
Protocol: Cells were plated at ˜90% confluency in 35 mm dishes, washed twice in DMEM and preincubated with the desired pharmacological compounds or vehicle controls (EtOH or DMSO). The cells were washed twice in DMEM and subsequently incubated for 5 min, 10 or 3 sec, with 750 μl [^14C]AEA (100 nM) that was pre-equilibrated for 75 min in medium containing 0.15% BSA. The equilibration step is necessary to avoid uneven distribution of the radiotracer and to ensure that it is stable in solution pre-bound to BSA. Less than 1% of AEA was hydrolyzed during this pre-equilibration step (data not shown). Following the incubation, 750 μl of ice-cold DMEM+0.15% BSA was added to the plates, the media separated from cells, which were then washed with DMEM+0.15% BSA to remove non-specifically bound AEA. The cells were scraped three times with 400 μl of ice-cold 2 mM EDTA in PBS and chloroform:methanol (1:1) added to the media and cells and the phases separated by centrifugation. The resulting aqueous (containing [^14C]ethanolamine) and organic (containing intact [^14C]AEA) phases were counted by liquid scintillation counting. [^14C]AEA uptake was determined by summing the production of [^14C]ethanolamine in the media and cells with intact cellular [^14C]AEA. Hydrolysis of [^14C]AEA was quantified by production of [^14C]ethanolamine in the media and cells. […]

FAAH [2] = molecular target: T1, FAAH (Mus musculus, UniProt O08914); experiment: FAAH enzyme assay, N18TG2 homogenates; assay type: biochemical; details: 100 μM inhibitor, 100 μM [14C]AEA, p>0.05
T1 construct: endogenous in cells; host or cells: N18TG2 mouse neuroblastoma cells, used as homogenate
T1 sequence (O08914 1-579): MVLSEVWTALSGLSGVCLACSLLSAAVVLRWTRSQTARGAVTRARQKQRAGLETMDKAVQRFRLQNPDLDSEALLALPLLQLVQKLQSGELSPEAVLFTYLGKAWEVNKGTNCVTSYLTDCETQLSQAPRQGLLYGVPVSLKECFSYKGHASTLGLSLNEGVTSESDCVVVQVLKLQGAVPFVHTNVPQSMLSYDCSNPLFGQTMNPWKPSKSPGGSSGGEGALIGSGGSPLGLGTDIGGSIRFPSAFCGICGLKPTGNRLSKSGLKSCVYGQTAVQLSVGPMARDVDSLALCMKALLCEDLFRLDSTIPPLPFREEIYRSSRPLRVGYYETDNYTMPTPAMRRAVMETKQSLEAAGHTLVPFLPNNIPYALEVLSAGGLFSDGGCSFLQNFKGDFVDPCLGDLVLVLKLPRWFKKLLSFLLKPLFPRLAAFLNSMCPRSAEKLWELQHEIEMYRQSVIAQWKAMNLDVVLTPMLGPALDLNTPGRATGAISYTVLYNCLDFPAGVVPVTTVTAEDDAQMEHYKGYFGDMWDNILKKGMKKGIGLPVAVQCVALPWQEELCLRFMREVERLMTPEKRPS
Protocol: (§1) FAAH activity assays were performed as previously described. Briefly, cell homogenates were incubated with 100 μM AEA+0.1 μCi [^14C]AEA in Tris-HCl (pH 9) containing 0.1% BSA. For activity analysis, time and total protein were adjusted to maintain substrate conversion at approximately 10%. […] AEA (100 μM) for 1 or 30 min, respectively. Reactions were stopped by the addition of two volumes of 1:1 chloroform:methanol and the phases separated by centrifugation. The methanol phase (containing [^14C]ethanolamine) was sampled and quantified using a Beckman LS 6500 scintillation counter.

COS7-FAAH-eGFP cells = experiment: [14C]AEA cellular uptake and hydrolysis in COS7-FAAH-eGFP cells; assay type: cell-based, African green monkey
Protocol: (§2) COS-7 and N18TG2 cells were grown in DMEM supplemented with 10% fetal bovine serum, 100 U/ml penicillin/streptomycin, 2 mM L-glutamine, and 1 mM sodium pyruvate in a humidified incubator containing 95% air and 5% CO2. Transfections were carried out using Lipofectamine 2000 (Invitrogen, Carlsbad, Calif.) according to the manufacturer's instructions. For stable cell selection, forty eight hours after transfection cells were expanded in medium containing 750 μg/ml geneticin (Invitrogen, Carlsbad, Calif.). Four weeks later, stable cells were subjected to flow cytometry at the Flow Cytometry Core Facility in Stony Brook University and cells expressing identical levels of the indicated FAAH-eGFP fusion proteins were collected and expanded.
(§3) Cells were plated at ˜90% confluency in 35 mm dishes, washed twice in DMEM and preincubated with the desired pharmacological compounds or vehicle controls (EtOH or DMSO). The cells were washed twice in DMEM and subsequently incubated for 5 min, 10 or 3 sec, with 750 μl [^14C]AEA (100 nM) that was pre-equilibrated for 75 min in medium containing 0.15% BSA. The equilibration step is necessary to avoid uneven distribution of the radiotracer and to ensure that it is stable in solution pre-bound to BSA. Less than 1% of AEA was hydrolyzed during this pre-equilibration step (data not shown). Following the incubation, 750 μl of ice-cold DMEM+0.15% BSA was added to the plates, the media separated from cells, which were then washed with DMEM+0.15% BSA to remove non-specifically bound AEA. The cells were scraped three times with 400 μl of ice-cold 2 mM EDTA in PBS and chloroform:methanol (1:1) added to the media and cells and the phases separated by centrifugation. The resulting aqueous (containing [^14C]ethanolamine) and organic (containing intact [^14C]AEA) phases were counted by liquid scintillation counting. [^14C]AEA uptake was determined by summing the production of [^14C]ethanolamine in the media and cells with intact cellular [^14C]AEA. Hydrolysis of [^14C]AEA was quantified by production of [^14C]ethanolamine in the media and cells. Blanks consisting of either untransfected COS-7 cells or N18TG2 cells treated with 100 nM of the FAAH inhibitor URB597 were subtracted from all conditions.

N18TG2 cells = experiment: [14C]AEA cellular uptake and hydrolysis in N18TG2 cells; assay type: cell-based, mouse
Protocol: as §2, §3

FAAH [3] = molecular target: T2, FAAH (Rattus norvegicus, UniProt P97612); experiment: FAAH enzyme assay, COS-7-FAAH-eGFP homogenates; assay type: biochemical; details: 100 μM inhibitor, 100 μM [14C]AEA, p>0.05
T2 construct: N-terminal transmembrane helix (residues 1-29) in red, residues 30-579 in black, and eGFP in green; expressed in transfected cells
T2 sequence (P97612 1-579): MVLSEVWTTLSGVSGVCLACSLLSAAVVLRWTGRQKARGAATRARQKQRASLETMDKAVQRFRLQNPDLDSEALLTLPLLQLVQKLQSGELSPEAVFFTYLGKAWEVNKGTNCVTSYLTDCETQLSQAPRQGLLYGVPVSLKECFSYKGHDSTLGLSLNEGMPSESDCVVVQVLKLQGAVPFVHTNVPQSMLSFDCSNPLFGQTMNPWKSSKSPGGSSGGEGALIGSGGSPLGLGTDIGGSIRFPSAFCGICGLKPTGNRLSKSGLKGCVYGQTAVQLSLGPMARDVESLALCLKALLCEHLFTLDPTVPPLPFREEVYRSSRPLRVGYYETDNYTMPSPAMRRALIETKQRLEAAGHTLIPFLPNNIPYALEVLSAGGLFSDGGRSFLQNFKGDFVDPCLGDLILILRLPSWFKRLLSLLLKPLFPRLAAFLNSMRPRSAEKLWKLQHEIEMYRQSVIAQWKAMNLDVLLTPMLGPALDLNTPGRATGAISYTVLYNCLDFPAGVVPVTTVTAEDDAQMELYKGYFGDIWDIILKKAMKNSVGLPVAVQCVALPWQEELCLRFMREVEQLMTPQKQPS
Protocol: as §1

[4] = 20-100 μM BMS309403, dose-dependent
[5] = 100 μM, 5 min, vs vehicle, p<0.05
[6] = oleic acid 100 μM, 5 min incubation, [14C]AEA 100 nM

Row | SMILES | AEA hydrolyzed during pre-equilibration step [1] | [14C]AEA hydrolysis (FAAH activity) by homogenates (FAAH [2]) | intracellular hydrolysis of [14C]AEA following uptake (COS7-FAAH-eGFP cells; 3 sec, 20-100 μM) | levels of cell associated [14C]AEA (COS7-FAAH-eGFP cells; 3 sec, data not shown) | maximal inhibition of [14C]AEA uptake (COS7-FAAH-eGFP cells; [4]) | [14C]AEA hydrolysis (metabolism), effect in words (COS7-FAAH-eGFP cells; 20-100 μM, vs vehicle) | [14C]AEA uptake, effect in words (COS7-FAAH-eGFP cells; 20-100 μM, vs vehicle) | intracellular hydrolysis of [14C]AEA following uptake (N18TG2 cells; 3 sec, 20-100 μM) | levels of cell associated [14C]AEA (N18TG2 cells; 3 sec, data not shown) | maximal inhibition of [14C]AEA uptake (N18TG2 cells; [4]) | [14C]AEA hydrolysis (metabolism), effect in words (N18TG2 cells; 20-100 μM, vs vehicle) | [14C]AEA uptake, effect in words (N18TG2 cells; 20-100 μM, vs vehicle) | [14C]AEA hydrolysis (FAAH activity) by homogenates (FAAH [3]) | [14C]AEA hydrolysis, effect in words (COS7-FAAH-eGFP cells; [5]) | [14C]AEA uptake, effect in words (COS7-FAAH-eGFP cells; [5]) | reduction of [14C]AEA uptake (COS7-FAAH-eGFP cells; [6]) | [14C]AEA hydrolysis, effect in words (N18TG2 cells; [5]) | [14C]AEA uptake, effect in words (N18TG2 cells; [5]) | reduction of [14C]AEA uptake (N18TG2 cells; [6])
1 | CCCCC/C=C\C/C=C\C/C=C\C/C=C\CCCC(=O)NCCO [AEA, arachidonoyl ethanolamide] | Less than 1% |  |  |  |  |  |  |  |  |  |  |  |  |  |  |  |  |  | 
2 | CCc1c(-c2ccccc2)c(-c2ccccc2)nn1-c1ccccc1-c1cccc(OCC(=O)O)c1 [BMS309403] |  | did not inhibit; also recorded: not inhibited | reduced | without affecting | 48% | proportionally and significantly reduced; also recorded: significantly decreased | significantly decreased | reduced | without affecting | 57% | proportionally and significantly reduced; also recorded: significantly decreased | significantly decreased | did not inhibit; also recorded: not inhibited |  |  |  |  |  | 
3 | CCCCCCCC/C=C\CCCCCCCC(=O)O [oleic acid] |  | did not inhibit; also recorded: not inhibited |  |  |  |  |  |  |  |  |  |  | did not inhibit; also recorded: not inhibited | significantly reduced | significantly reduced | 25% | significantly reduced | significantly reduced | 53%
